In ChEMBL document CHEMBL5291721, “A preclinical secondary pharmacology resource illuminates target-adverse drug reaction associations of marketed drugs” (Nat Commun, 2023) one finds AC50 data, which are given here for 11 compounds.

Experiment [1] concerns the target T1, Alpha-2C adrenergic receptor (Homo sapiens, UniProt P18825).
T1 sequence (P18825 whole entry): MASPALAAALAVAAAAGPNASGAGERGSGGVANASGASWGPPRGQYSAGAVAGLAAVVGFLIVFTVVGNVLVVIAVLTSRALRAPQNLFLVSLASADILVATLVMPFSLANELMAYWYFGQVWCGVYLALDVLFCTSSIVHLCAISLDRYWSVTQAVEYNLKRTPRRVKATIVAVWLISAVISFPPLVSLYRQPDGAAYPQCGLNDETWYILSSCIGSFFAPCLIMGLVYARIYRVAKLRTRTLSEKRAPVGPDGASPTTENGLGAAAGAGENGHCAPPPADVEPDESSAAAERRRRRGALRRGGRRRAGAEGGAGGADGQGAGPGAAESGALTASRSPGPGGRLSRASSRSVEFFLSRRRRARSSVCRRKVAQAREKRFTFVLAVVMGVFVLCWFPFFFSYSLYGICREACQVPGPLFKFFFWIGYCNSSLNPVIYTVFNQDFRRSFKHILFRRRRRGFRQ
It counts as functional.

Experiment [2] has as its target T2, Thromboxane A2 receptor (Homo sapiens, UniProt P21731).
T2 sequence (P21731 whole entry): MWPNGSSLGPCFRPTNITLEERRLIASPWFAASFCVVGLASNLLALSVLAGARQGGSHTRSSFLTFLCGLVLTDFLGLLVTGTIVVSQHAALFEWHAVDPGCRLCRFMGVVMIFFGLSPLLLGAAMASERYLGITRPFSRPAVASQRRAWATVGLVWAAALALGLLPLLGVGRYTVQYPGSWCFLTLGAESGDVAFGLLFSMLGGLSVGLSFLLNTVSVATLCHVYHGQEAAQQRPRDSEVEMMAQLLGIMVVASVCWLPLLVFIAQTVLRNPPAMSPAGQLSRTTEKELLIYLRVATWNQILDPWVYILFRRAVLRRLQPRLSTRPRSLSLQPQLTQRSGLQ

In experiment [3] the target is T3, Progesterone receptor (Homo sapiens, UniProt P06401).
T3 sequence (P06401 whole entry): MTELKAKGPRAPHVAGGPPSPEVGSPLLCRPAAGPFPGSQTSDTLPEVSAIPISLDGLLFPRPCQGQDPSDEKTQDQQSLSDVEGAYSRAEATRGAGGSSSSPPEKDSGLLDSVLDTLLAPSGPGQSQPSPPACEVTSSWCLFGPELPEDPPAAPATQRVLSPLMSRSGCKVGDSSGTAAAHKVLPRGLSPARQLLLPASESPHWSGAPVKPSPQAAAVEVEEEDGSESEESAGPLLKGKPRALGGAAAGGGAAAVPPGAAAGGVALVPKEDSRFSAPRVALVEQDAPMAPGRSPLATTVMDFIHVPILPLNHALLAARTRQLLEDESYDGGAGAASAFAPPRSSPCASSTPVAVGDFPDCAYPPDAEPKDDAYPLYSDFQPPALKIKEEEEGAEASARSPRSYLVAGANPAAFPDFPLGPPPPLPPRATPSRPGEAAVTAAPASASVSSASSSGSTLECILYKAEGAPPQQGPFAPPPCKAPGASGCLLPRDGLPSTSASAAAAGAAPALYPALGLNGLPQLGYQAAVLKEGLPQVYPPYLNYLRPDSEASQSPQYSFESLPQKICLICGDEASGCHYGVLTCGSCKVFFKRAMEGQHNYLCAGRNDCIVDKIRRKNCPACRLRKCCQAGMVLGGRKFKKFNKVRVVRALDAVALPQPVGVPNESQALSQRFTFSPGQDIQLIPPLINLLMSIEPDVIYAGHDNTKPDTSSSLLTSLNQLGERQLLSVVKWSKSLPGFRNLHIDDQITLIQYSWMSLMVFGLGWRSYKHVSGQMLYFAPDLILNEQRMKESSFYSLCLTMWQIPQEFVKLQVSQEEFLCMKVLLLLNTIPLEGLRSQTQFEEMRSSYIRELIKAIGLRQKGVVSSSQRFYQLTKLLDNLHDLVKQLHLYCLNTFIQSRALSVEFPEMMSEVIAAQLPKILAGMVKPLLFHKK
The class given is functional.

The target in experiment [4] is D(1A) dopamine receptor (Homo sapiens, UniProt P21728). The class given is functional, cell-based.
Sequence of D(1A) dopamine receptor (P21728 whole entry): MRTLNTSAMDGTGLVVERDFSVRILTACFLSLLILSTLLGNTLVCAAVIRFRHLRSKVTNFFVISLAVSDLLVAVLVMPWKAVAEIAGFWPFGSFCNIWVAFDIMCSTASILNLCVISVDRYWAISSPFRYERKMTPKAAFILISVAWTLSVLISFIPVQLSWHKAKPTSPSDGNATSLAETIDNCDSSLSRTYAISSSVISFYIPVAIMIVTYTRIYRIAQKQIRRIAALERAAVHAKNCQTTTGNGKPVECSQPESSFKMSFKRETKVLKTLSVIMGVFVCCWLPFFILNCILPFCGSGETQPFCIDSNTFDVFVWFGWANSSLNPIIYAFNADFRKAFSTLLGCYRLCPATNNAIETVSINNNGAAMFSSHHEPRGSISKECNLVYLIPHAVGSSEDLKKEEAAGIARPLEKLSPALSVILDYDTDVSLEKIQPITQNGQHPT
Experiment [5] concerns the target Gamma-aminobutyric acid receptor subunit alpha-1 (Rattus norvegicus, UniProt P62813).
Experiment [6] has as its target Neuronal acetylcholine receptor subunit alpha-4 (Homo sapiens, UniProt P43681).
In experiment [7] the target is 5-hydroxytryptamine receptor 2B (Homo sapiens, UniProt P41595). The class given is functional, cell-based.
Sequence of 5-hydroxytryptamine receptor 2B (P41595 whole entry): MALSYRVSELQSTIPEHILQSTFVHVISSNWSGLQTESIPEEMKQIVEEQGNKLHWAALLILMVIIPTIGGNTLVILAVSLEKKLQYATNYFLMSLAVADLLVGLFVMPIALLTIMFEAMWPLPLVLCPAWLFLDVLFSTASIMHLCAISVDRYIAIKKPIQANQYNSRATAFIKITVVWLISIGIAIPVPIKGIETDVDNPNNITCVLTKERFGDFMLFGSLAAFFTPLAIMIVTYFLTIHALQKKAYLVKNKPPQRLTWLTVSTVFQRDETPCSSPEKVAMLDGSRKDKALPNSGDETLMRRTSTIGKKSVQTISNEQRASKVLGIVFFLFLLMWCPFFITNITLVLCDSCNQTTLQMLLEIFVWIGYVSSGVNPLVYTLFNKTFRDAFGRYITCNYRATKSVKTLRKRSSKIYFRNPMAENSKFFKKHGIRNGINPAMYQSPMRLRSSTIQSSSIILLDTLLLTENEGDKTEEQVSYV
The target of experiment [8] is T4, B2 bradykinin receptor (Homo sapiens, UniProt P30411).
T4 sequence (P30411 whole entry): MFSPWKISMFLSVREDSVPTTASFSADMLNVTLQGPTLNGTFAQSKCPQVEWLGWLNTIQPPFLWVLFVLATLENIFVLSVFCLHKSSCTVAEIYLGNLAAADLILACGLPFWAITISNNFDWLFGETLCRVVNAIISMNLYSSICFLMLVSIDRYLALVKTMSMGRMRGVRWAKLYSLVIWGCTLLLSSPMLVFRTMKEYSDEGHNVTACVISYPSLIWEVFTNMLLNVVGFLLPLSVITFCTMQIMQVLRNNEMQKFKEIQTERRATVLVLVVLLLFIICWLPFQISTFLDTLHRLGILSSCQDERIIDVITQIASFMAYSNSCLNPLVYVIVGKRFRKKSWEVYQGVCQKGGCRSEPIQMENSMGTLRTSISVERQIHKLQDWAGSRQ

In experiment [9] the target is Sodium-dependent noradrenaline transporter (Homo sapiens, UniProt P23975).
Sequence of Sodium-dependent noradrenaline transporter (P23975 whole entry): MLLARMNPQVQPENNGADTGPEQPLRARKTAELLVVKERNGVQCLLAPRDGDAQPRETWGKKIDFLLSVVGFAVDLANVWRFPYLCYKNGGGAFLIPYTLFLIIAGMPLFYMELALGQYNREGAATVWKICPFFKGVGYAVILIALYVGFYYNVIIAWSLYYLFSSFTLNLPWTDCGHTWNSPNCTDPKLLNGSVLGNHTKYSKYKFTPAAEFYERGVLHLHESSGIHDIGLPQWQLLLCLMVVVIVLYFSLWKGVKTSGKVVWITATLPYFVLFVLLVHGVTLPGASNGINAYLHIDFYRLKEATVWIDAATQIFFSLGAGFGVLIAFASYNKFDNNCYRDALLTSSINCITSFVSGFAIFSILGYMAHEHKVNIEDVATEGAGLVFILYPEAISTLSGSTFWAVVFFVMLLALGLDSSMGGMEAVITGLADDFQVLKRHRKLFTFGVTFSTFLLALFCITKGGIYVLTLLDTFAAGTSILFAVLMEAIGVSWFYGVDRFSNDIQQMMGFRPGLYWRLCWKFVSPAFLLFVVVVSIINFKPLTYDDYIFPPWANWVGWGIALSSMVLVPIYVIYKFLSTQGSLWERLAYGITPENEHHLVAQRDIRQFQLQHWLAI
The target in experiment [10] is T5, Alpha-2A adrenergic receptor (Homo sapiens, UniProt P08913).
T5 sequence (P08913 whole entry): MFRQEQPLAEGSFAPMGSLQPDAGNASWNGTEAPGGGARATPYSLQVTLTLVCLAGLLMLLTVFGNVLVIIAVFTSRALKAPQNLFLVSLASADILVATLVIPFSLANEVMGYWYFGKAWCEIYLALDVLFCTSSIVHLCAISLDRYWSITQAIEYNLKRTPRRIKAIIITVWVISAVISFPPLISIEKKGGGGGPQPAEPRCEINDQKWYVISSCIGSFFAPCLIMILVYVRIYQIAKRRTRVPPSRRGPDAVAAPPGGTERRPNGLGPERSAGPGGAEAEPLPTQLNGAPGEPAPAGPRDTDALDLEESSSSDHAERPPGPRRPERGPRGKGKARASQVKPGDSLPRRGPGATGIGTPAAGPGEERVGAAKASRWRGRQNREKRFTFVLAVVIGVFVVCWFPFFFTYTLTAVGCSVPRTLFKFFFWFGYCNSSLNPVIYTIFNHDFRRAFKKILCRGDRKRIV
It counts as functional, cell-based.

Experiment [11] addresses Melanocortin receptor 3 (Homo sapiens, UniProt P41968).
Also: assay procedure not described here.

Sequence of Gamma-aminobutyric acid receptor subunit alpha-1 (P62813 whole entry): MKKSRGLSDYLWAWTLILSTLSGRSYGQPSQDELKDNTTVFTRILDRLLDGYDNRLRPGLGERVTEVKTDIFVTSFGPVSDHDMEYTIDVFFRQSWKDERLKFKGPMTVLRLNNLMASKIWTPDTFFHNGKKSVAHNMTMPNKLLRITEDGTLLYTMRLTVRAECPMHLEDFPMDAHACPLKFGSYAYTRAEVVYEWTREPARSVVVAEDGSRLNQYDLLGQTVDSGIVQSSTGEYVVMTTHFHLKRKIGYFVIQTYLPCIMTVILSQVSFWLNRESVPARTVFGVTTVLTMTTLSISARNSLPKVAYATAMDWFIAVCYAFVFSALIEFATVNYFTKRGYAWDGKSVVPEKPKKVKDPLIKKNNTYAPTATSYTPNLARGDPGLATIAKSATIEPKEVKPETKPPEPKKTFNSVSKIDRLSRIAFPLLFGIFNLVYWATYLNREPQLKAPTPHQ
Sequence of Melanocortin receptor 3 (P41968 whole entry): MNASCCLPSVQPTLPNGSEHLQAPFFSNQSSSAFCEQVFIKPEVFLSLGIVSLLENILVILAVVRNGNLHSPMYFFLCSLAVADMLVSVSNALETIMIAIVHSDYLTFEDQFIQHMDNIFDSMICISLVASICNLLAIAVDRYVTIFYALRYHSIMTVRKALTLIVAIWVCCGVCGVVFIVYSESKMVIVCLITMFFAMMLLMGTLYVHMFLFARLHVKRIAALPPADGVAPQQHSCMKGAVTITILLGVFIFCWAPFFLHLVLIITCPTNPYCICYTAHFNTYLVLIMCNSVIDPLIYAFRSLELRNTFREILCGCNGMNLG
Sequence of Neuronal acetylcholine receptor subunit alpha-4 (P43681 whole entry): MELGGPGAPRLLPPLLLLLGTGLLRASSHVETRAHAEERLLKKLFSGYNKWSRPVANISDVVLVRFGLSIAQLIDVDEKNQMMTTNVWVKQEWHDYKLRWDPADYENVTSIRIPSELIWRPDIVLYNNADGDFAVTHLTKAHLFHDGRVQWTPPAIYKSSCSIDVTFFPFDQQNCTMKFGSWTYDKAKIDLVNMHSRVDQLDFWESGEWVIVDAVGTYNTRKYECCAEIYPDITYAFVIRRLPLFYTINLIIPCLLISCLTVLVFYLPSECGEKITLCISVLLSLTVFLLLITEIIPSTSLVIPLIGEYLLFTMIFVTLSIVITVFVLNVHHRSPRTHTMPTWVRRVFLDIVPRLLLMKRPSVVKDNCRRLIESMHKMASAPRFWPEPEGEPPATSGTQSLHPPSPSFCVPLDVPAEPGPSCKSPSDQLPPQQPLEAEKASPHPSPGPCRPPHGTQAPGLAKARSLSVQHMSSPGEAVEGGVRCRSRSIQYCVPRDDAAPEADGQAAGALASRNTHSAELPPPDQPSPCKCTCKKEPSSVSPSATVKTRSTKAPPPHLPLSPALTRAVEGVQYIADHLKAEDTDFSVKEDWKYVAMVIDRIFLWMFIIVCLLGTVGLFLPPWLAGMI

On to `CC(C)N(CCCCOCC(=O)O)c1cnc(-c2ccccc2)c(-c2ccccc2)n1`, for which the AC50 in experiment [1] was > 30 µM; in experiment [2] it was 28 µM; in [3] it was > 30 µM; in experiment [4], 7.3 µM; in experiment [5], > 30 µM; in experiment [6], > 30 µM. The AC50 in [7] is > 30 µM; in [8], > 10 µM; in experiment [9], > 30 µM; in experiment [10], > 30 µM; in experiment [11] it was > 30 µM.
Consider `CC(=O)c1ccc(S(=O)(=O)NC(=O)NC2CCCCC2)cc1` [ACETOHEXAMIDE], for which the AC50 in [1], in experiment [2], in [3], in experiment [4], in experiment [5] and in experiment [6] was > 10 µM in each case. Besides, the AC50 in experiment [7] was > 30 µM; in experiment [8] it was > 10 µM; in experiment [9], > 10 µM; in [10], > 30 µM; in experiment [11], > 10 µM.
`COc1cc(C)c(/C=C/C(C)=C/C=C/C(C)=C/C(=O)O)c(C)c1C` [ACITRETIN]: the AC50 in experiment [1] was > 10 µM; in experiment [2], > 10 µM; in experiment [3], > 30 µM; in experiment [4], > 10 µM; in experiment [5] it was > 10 µM; in experiment [6] it was > 10 µM. For the same compound, the AC50 in experiment [7], in experiment [8], in experiment [9], in experiment [10] and in experiment [11] was > 10 µM in each case.
Consider `CCC1(CCC(C)C)C(=O)NC(=O)NC1=O` [AMOBARBITAL], for which the AC50 in [1], in experiment [2], in [3], in [4], in experiment [5] and in experiment [6] was > 10 µM in each case. Besides, the concentration at half-maximal activity (AC50) in experiment [7], in experiment [8], in experiment [9], in experiment [10] and in experiment [11] was > 10 µM in each case.
Take `COc1ccc(C2C(=O)c3ccccc3C2=O)cc1` [ANISINDIONE]: the AC50 in experiment [1] was > 10 µM; in experiment [2], > 10 µM; in [3] it was > 30 µM; in experiment [4], > 30 µM; in [5] it was > 10 µM; in experiment [6], > 10 µM. In addition, the AC50 in experiment [7], in experiment [8], in experiment [9], in experiment [10] and in experiment [11] was > 10 µM each time.
For the compound `O=C(O)CCNC(=O)c1ccc(/N=N/c2ccc(O)c(C(=O)O)c2)cc1` [BALSALAZIDE], the AC50 in [1], in experiment [2], in experiment [3], in [4], in experiment [5] and in experiment [6] was > 30 µM throughout. Besides, the AC50 in experiment [7], in experiment [8], in experiment [9], in experiment [10] and in experiment [11] was > 30 µM in each case.
For `O=C(O)c1ccc(NC(=O)[C@H](Cc2ccc(O)cc2)NC(=O)c2ccccc2)cc1` [BENTIROMIDE], the AC50 in experiment [1], in [2], in experiment [3], in experiment [4], in [5] and in experiment [6] was > 10 µM throughout. The half-maximal activity concentration (AC50) in experiment [7], in [8], in experiment [9], in [10] and in [11] was > 10 µM each time.
On to `O=C(CCCN1CCC(O)(c2ccc(Br)cc2)CC1)c1ccc(F)cc1` [BROMPERIDOL], for which the AC50 in experiment [2] is > 30 µM; in [3] it was > 30 µM; in [4] it was > 30 µM; in experiment [5], > 30 µM; in experiment [6], > 30 µM; in [7] it was 7.3 µM. Also, the AC50 in experiment [8] and in [11] was > 30 µM in each case.
For `O=c1[nH]c2ccccc2n1CCCN1CCN(C(c2ccccc2)c2ccccc2)CC1` [OXATOMIDE], the AC50 was 0.89 µM in experiment [1]; > 30 µM in [2]; > 30 µM in experiment [3]; > 30 µM in [4]; > 30 µM in [5]; > 30 µM in [6]. Besides, the AC50 is > 30 µM in [8], 3.2 µM in [9], > 30 µM in experiment [10] and > 30 µM in [11].
As for `C=CCN1CCc2nc(N)sc2CC1` [TALIPEXOLE], the AC50 was 0.71 µM in [1]; > 30 µM in [2]; > 30 µM in experiment [3]; > 30 µM in [4]; > 30 µM in [5]; > 30 µM in [6]. For the same compound, the AC50 in experiment [7], in experiment [8], in experiment [9] and in experiment [11] was > 30 µM in each case.
Regarding `CCOC(=O)[C@@H](N)Cc1ccc(-c2cc(O[C@H](c3ccc(Cl)cc3-n3ccc(C)n3)C(F)(F)F)nc(N)n2)cc1` [TELOTRISTAT ETHYL], the AC50 in experiment [1] was 22 µM; in experiment [3], > 30 µM; in [4], > 30 µM; in experiment [5], > 30 µM; in experiment [6], > 30 µM; in experiment [7], > 30 µM. Besides, the AC50 in experiment [8] was > 30 µM; in [9], 16 µM; in [10] it was > 30 µM; in experiment [11], 12 µM.
